Patent US11524938B2, “Aromatic sulfonamide derivatives” (Bayer Pharma Aktiengesellschaft, priority 2016, dated 2022)

Molecular target: T1, human P2X4 (Homo sapiens, UniProt Q99571)
T1 sequence (Q99571 1-388): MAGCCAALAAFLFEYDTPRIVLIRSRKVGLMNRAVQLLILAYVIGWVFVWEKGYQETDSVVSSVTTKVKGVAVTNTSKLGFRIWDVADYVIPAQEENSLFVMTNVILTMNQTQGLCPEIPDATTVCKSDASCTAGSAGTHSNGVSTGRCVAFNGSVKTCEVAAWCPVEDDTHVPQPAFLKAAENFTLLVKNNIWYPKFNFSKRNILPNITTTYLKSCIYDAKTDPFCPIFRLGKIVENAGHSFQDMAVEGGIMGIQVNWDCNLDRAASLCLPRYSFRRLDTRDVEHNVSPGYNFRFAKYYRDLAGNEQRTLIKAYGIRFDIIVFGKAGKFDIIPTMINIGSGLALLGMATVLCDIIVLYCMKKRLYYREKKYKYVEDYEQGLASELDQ
Experiment: Human P2X4 HEK Cell FLIPR Assay
Format: cell-based
Conditions: agonist Bz-ATP at EC80; for Emax: HEK293, HEK293 cells, percentage of maximal inhibition, read-out: Human P2X4 HEK Cells (FLIPR Assay) avg Efficacy [%]; for IC50: HEK293 cells, individual values listed where some fall outside detection range
Outline: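 Calcium flux read by FLIPR for 120 sec after Bz-ATP challenge at EC80 (established each assay day), following 30 min room-temperature compound preincubation in dye-loaded stable human P2X4 HEK293 cells. Peak RFU over basal normalized to agonist control; IC50, maximal inhibition and Hill coefficient from triplicate means.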

Work on `COc1ccc(CC(=O)Nc2ccc(-c3cncc(C(F)(F)F)c3)c(S(N)(=O)=O)c2)c(F)c1` [Example 457, 2-(2-Fluoro-4-methoxyphenyl)-N-{3-sulfamoyl-4-[5-(trifluoromethyl)pyridin-3-yl]phenyl}acetamide] yielded an Emax of 70% and an IC50 of 558 nM.
Compound `NS(=O)(=O)c1cc(NC(=O)Cc2ccc(C(F)F)cc2)ccc1-c1cncc(C(F)(F)F)c1` [Example 458, 2-[4-(Difluoromethyl)phenyl]-N-{3-sulfamoyl-4-[5-(trifluoromethyl)pyridin-3-yl]phenyl}acetamide] has an Emax of 85% and an IC50 of 1080 nM.
With `NS(=O)(=O)c1cc(NC(=O)Cc2ccc(Cl)cc2)ccc1-c1ccc(Cl)nc1` [Example 459, 2-(4-Chlorophenyl)-N-[4-(6-chloropyridin-3-yl)-3-sulfamoylphenyl]acetamide] the Emax was 88% and the IC50 was 1340 nM.
For `NS(=O)(=O)c1cc(NC(=O)Cc2ccccc2F)ccc1-c1ccc(Cl)nc1` [Example 460, N-[4-(6-Chloropyridin-3-yl)-3-sulfamoylphenyl]-2-(2-fluorophenyl)acetamide], the Emax was 84% and the IC50 was 646 nM.
In the case of `NS(=O)(=O)c1cc(NC(=O)Cc2c(F)cccc2Cl)ccc1-c1ccc(Cl)nc1` [Example 461, 2-(2-Chloro-6-fluorophenyl)-N-[4-(6-chloropyridin-3-yl)-3-sulfamoylphenyl]acetamide], the Emax is reported as 93% and the IC50 is reported as 137 nM.
Compound `NS(=O)(=O)c1cc(NC(=O)Cc2ccc(C(F)(F)F)cc2)ccc1-c1ccc(Cl)nc1` [Example 462, N-[4-(6-Chloropyridin-3-yl)-3-sulfamoylphenyl]-2-[4-(trifluoromethyl)phenyl]acetamide] has an Emax of 89% and an IC50 of 929 nM.
`NS(=O)(=O)c1cc(NC(=O)Cc2ccccc2C(F)(F)F)ccc1-c1ccc(Cl)nc1` [Example 463, N-[4-(6-Chloropyridin-3-yl)-3-sulfamoylphenyl]-2-[2-(trifluoromethyl)phenyl]acetamide] showed an Emax of 99% and an IC50 of 18 nM.
`NS(=O)(=O)c1cc(NC(=O)Cc2cccc(F)c2)ccc1-c1ccc(Cl)nc1` [Example 464, N-[4-(6-Chloropyridin-3-yl)-3-sulfamoylphenyl]-2-(3-fluorophenyl)acetamide] gave an Emax of 92% and an IC50 of 648 nM.
`NS(=O)(=O)c1cc(NC(=O)Cc2ccc(Cl)cc2Cl)ccc1-c1ccc(Cl)nc1` [Example 465, N-[4-(6-Chloropyridin-3-yl)-3-sulfamoylphenyl]-2-(2,4-dichlorophenyl)acetamide] gave an Emax of 92% and an IC50 of 26 nM.
`NS(=O)(=O)c1cc(NC(=O)Cc2ccc(F)cc2F)ccc1-c1ccc(Cl)nc1` [Example 466, N-[4-(6-Chloropyridin-3-yl)-3-sulfamoylphenyl]-2-(2,4-difluorophenyl)acetamide] gave an Emax of 91% and an IC50 of 363 nM.
`NS(=O)(=O)c1cc(NC(=O)Cc2ccccc2Br)ccc1-c1ccc(Cl)nc1` [Example 467, 2-(2-Bromophenyl)-N-[4-(6-chloropyridin-3-yl)-3-sulfamoylphenyl]acetamide] gave an Emax of 93% and an IC50 of 9 nM.
`NS(=O)(=O)c1cc(NC(=O)Cc2ccc(F)c(F)c2)ccc1-c1ccc(Cl)nc1` [Example 468, N-[4-(6-Chloropyridin-3-yl)-3-sulfamoylphenyl]-2-(3,4-difluorophenyl)acetamide] gave an Emax of 97% and an IC50 of 278 nM.
`Cc1ccc(CC(=O)Nc2ccc(-c3ccc(Cl)nc3)c(S(N)(=O)=O)c2)cc1` [Example 469, N-[4-(6-Chloropyridin-3-yl)-3-sulfamoylphenyl]-2-(4-methylphenyl)acetamide] showed an Emax of 90% and an IC50 of 453 nM.
`COc1ccc(CC(=O)Nc2ccc(-c3ccc(Cl)nc3)c(S(N)(=O)=O)c2)cc1` [Example 470, N-[4-(6-Chloropyridin-3-yl)-3-sulfamoylphenyl]-2-(4-methoxyphenyl)acetamide] was tested, and the Emax was 93% and the IC50 was 483 nM.
Work on `Cc1ccc(CC(=O)Nc2ccc(-c3ccc(Cl)nc3)c(S(N)(=O)=O)c2)c(F)c1` [Example 471, N-[4-(6-Chloropyridin-3-yl)-3-sulfamoylphenyl]-2-(2-fluoro-4-methylphenyl)acetamide] yielded an Emax of 92% and an IC50 of 269 nM.
With `COc1ccc(CC(=O)Nc2ccc(-c3ccc(Cl)nc3)c(S(N)(=O)=O)c2)c(F)c1` [Example 472, N-[4-(6-Chloropyridin-3-yl)-3-sulfamoylphenyl]-2-(2-fluoro-4-methoxyphenyl)acetamide] the Emax was 97% and the IC50 was 197 nM.
In the case of `NS(=O)(=O)c1cc(NC(=O)Cc2ccc(C(F)F)cc2)ccc1-c1ccc(Cl)nc1` [Example 473, N-[4-(6-Chloropyridin-3-yl)-3-sulfamoylphenyl]-2-[4-(difluoromethyl)phenyl]acetamide], the Emax is reported as 93% and the IC50 is reported as 530 nM.
For `NS(=O)(=O)c1cc(NC(=O)Cc2ccc(C(F)(F)F)cc2Cl)ccc1-c1ccc(Cl)nc1` [Example 474, N-[4-(6-Chloropyridin-3-yl)-3-sulfamoylphenyl]-2-[2-chloro-4-(trifluoromethyl)phenyl]acetamide], the Emax was 93% and the IC50 was 323 nM.
Work on `NS(=O)(=O)c1cc(NC(=O)Cc2ccc(Cl)cc2Cl)ccc1-c1cncc(F)c1` [Example 475, 2-(2,4-Dichlorophenyl)-N-[4-(5-fluoropyridin-3-yl)-3-sulfamoylphenyl]acetamide] yielded an Emax of 88% and an IC50 of 64 nM.
With `Cc1ccc(CC(=O)Nc2ccc(-c3cncc(F)c3)c(S(N)(=O)=O)c2)c(F)c1` [Example 476, 2-(2-Fluoro-4-methylphenyl)-N-[4-(5-fluoropyridin-3-yl)-3-sulfamoylphenyl]acetamide] the Emax was 89% and the IC50 was 58 nM.
Work on `NS(=O)(=O)c1cc(NC(=O)Cc2ccc(C(F)F)cc2)ccc1-c1cncc(F)c1` [Example 477, 2-[4-(Difluoromethyl)phenyl]-N-[4-(5-fluoropyridin-3-yl)-3-sulfamoylphenyl]acetamide] yielded an Emax of 91% and an IC50 of 259 nM.
`NS(=O)(=O)c1cc(NC(=O)Cc2ccccc2Cl)ccc1-n1cc(C2CC2)cn1` [Example 478, 2-(2-Chlorophenyl)-N-[4-(4-cyclopropyl-1H-pyrazol-1-yl)-3-sulfamoylphenyl]acetamide] gave an Emax of 82% and an IC50 of 47 nM.
`NS(=O)(=O)c1cc(NC(=O)Cc2ccccc2F)ccc1-n1nc2cc(F)cc(F)c2n1` [Example 479, N-[4-(4,6-Difluoro-2H-benzotriazol-2-yl)-3-sulfamoylphenyl]-2-(2-fluorophenyl)acetamide] showed an Emax of 79% and an IC50 of 145 nM.
`NS(=O)(=O)c1cc(NC(=O)Cc2ccccc2F)ccc1-n1nnc2c(F)cc(F)cc21` [Example 480, N-[4-(4,6-Difluoro-1H-benzotriazol-1-yl)-3-sulfamoylphenyl]-2-(2-fluorophenyl)acetamide] showed an Emax of 105% and an IC50 of 125 nM.
In the case of `NS(=O)(=O)c1cc(NC(=O)Cc2ccccc2Cl)ccc1-n1nnc2c(F)cc(F)cc21` [Example 481, 2-(2-Chlorophenyl)-N-[4-(4,6-difluoro-1H-benzotriazol-1-yl)-3-sulfamoylphenyl]acetamide], the Emax is reported as 103% and the IC50 is reported as 50 nM.
With `NS(=O)(=O)c1cc(NC(=O)Cc2ccccc2Cl)ccc1-n1nc2cc(F)cc(F)c2n1` [Example 482, 2-(2-Chlorophenyl)-N-[4-(4,6-difluoro-2H-benzotriazol-2-yl)-3-sulfamoylphenyl]acetamide] the Emax was 73% and the IC50 was 2340 nM.
`NS(=O)(=O)c1cc(NC(=O)Cc2ccccc2Cl)ccc1-c1cnc(C(F)(F)F)s1` [Example 483, 2-(2-Chlorophenyl)-N-{3-sulfamoyl-4-[2-(trifluoromethyl)-1,3-thiazol-5-yl]phenyl}acetamide] gave an Emax of 86% and an IC50 of 71 nM.
`N#Cc1cnn(-c2cc(C(F)(F)F)c(NC(=O)Cc3ccccc3Cl)cc2S(N)(=O)=O)c1` [Example 484, 2-(2-Chlorophenyl)-N-[4-(4-cyano-1H-pyrazol-1-yl)-5-sulfamoyl-2-(trifluoromethyl)phenyl]acetamide] showed an Emax of 63% and an IC50 of 401 nM.
In the case of `N#Cc1cnn(-c2ccc(NC(=O)Cc3cc(C(F)(F)F)ccc3Cl)cc2S(N)(=O)=O)c1` [Example 485, 2-[2-Chloro-5-(trifluoromethyl)phenyl]-N-[4-(4-cyano-1H-pyrazol-1-yl)-3-sulfamoylphenyl]acetamide], the Emax is reported as 100% and the IC50 is reported as 128 nM.
`N#Cc1cnn(-c2cc(C(F)(F)F)c(NC(=O)Cc3cc(C(F)(F)F)ccc3Cl)cc2S(N)(=O)=O)c1` [Example 486, 2-[2-Chloro-5-(trifluoromethyl)phenyl]-N-[4-(4-cyano-1H-pyrazol-1-yl)-5-sulfamoyl-2-(trifluoromethyl)phenyl]acetamide] showed an Emax of 71% and an IC50 of 7340 nM.
For `N#Cc1cnn(-c2ccc(NC(=O)Cc3ccccc3Cl)c(C(F)(F)F)c2S(N)(=O)=O)c1` [Example 487, 2-(2-Chlorophenyl)-N-[4-(4-cyano-1H-pyrazol-1-yl)-3-sulfamoyl-2-(trifluoromethyl)phenyl]acetamide], the Emax was 45% and the IC50 was over 25000 nM.
`N#Cc1cnn(-c2cc(C(F)(F)F)c(NC(=O)Cc3cccc(C(F)(F)F)c3Cl)cc2S(N)(=O)=O)c1` [Example 488, 2-[2-Chloro-3-(trifluoromethyl)phenyl]-N-[4-(4-cyano-1H-pyrazol-1-yl)-5-sulfamoyl-2-(trifluoromethyl)phenyl]acetamide] showed an Emax of 78% and an IC50 of 2330 nM.
